Reference: ChEMBL document CHEMBL4825708 (J Med Chem, 2021)
Converted amounts (≈) assume the structure as drawn.

Experiments:
[1] = Kinetic solubility of compound at pH 7.4; settings: buffer
Estrogen receptor [2] = target: T1, Estrogen receptor (Homo sapiens, UniProt P03372)
T1 sequence (P03372 whole entry): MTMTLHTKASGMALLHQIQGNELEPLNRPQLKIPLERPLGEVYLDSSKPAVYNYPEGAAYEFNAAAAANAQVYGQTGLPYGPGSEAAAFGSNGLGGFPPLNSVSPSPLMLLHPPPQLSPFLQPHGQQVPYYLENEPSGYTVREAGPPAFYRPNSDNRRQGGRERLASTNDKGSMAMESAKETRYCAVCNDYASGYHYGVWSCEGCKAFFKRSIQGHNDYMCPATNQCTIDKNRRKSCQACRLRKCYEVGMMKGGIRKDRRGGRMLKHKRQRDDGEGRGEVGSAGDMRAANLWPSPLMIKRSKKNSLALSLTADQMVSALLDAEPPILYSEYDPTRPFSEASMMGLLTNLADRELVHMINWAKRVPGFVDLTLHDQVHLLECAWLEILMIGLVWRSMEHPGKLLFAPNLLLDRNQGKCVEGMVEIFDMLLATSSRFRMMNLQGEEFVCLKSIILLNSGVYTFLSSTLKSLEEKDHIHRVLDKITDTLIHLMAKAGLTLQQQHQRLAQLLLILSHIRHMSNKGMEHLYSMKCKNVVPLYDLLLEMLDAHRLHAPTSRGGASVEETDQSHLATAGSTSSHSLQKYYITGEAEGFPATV
Description: Antagonist activity at estrogen receptor in human T47D cells incubated for 18 hrs by ultra high sensitivity luminescence reporter gene assay

Estrogen receptor [3] = target: T1, Estrogen receptor; settings: mcf7
Description: Induction of estrogen receptor degradation in human MCF7 cells incubated for 4 hrs by Alexafluor -488 conjugate anti-mouse IgG staining based fluorescence method

MCF7 = test: cells; settings: Homo sapiens, MCF7, 72 h
Description: Antiproliferative activity against human MCF-7 cells incubated for 72 hrs by Cell-titer Glo assay

in vitro [4] = settings: human
in vitro [5] = settings: rat
Nav1.5 = Nav1.5 (Homo sapiens, UniProt Q14524); test: Inhibition of human Nav1.5 expressed in CHO cells at 10 uM by QPatch HT assay; settings: CHO cells expressing human Nav1.5
Nav1.5, sequence (Q14524 whole entry): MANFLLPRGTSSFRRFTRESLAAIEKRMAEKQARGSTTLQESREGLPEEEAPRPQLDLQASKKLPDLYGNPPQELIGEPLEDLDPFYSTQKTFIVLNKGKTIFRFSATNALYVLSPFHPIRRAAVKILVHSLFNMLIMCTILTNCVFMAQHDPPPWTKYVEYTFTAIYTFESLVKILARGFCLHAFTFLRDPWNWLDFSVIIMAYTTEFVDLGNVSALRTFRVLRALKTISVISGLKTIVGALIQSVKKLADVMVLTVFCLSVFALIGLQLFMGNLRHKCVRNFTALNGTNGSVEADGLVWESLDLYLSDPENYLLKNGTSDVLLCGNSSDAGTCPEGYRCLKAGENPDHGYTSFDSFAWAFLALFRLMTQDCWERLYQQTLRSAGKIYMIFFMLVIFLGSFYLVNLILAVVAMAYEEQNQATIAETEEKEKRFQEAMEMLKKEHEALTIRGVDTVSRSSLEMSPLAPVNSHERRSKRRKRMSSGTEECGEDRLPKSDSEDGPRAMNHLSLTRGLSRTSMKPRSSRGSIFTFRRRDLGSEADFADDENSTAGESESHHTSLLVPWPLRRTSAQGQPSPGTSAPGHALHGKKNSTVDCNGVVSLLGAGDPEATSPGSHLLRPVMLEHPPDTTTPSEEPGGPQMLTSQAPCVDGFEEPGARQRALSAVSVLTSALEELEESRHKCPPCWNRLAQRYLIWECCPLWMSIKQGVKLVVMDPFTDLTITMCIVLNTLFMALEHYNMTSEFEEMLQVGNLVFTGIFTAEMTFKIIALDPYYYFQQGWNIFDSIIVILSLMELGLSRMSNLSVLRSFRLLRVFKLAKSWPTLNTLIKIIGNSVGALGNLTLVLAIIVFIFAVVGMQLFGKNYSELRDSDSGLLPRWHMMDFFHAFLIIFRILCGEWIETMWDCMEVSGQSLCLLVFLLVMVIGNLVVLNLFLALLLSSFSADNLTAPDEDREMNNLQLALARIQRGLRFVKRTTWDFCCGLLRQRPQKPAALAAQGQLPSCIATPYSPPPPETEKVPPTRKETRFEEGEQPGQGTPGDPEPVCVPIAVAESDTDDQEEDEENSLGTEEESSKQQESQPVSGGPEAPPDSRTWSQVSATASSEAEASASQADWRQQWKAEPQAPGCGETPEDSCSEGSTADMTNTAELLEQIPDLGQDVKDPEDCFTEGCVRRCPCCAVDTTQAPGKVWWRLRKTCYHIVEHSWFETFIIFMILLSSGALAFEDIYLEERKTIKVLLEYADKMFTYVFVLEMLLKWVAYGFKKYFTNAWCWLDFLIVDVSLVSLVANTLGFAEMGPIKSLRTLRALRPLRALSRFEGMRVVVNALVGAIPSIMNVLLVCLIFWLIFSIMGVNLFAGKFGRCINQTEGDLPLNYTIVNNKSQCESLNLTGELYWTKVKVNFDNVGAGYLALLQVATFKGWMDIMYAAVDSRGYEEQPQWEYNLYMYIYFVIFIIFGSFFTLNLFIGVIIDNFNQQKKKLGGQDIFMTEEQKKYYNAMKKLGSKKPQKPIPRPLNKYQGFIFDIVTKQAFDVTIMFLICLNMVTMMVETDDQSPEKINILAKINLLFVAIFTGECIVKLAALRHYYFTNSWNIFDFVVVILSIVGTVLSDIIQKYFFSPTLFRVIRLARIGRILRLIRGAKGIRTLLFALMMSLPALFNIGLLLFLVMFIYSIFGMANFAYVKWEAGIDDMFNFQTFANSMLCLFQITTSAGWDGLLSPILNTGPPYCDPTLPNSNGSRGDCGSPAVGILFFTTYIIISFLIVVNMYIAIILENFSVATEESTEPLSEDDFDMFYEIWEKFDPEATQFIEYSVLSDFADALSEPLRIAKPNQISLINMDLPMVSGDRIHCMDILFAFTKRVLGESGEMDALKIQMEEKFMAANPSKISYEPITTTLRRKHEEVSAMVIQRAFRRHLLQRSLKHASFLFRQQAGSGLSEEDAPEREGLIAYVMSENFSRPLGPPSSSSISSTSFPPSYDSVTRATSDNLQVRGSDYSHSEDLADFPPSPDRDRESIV

Cav1.2 = Cav1.2 (Homo sapiens, UniProt Q13936); test: Inhibition of human Cav1.2 expressed in CHO cells at 10 uM by QPatch HT assay; settings: CHO cells expressing human Cav1.2
Cav1.2, sequence (Q13936 whole entry): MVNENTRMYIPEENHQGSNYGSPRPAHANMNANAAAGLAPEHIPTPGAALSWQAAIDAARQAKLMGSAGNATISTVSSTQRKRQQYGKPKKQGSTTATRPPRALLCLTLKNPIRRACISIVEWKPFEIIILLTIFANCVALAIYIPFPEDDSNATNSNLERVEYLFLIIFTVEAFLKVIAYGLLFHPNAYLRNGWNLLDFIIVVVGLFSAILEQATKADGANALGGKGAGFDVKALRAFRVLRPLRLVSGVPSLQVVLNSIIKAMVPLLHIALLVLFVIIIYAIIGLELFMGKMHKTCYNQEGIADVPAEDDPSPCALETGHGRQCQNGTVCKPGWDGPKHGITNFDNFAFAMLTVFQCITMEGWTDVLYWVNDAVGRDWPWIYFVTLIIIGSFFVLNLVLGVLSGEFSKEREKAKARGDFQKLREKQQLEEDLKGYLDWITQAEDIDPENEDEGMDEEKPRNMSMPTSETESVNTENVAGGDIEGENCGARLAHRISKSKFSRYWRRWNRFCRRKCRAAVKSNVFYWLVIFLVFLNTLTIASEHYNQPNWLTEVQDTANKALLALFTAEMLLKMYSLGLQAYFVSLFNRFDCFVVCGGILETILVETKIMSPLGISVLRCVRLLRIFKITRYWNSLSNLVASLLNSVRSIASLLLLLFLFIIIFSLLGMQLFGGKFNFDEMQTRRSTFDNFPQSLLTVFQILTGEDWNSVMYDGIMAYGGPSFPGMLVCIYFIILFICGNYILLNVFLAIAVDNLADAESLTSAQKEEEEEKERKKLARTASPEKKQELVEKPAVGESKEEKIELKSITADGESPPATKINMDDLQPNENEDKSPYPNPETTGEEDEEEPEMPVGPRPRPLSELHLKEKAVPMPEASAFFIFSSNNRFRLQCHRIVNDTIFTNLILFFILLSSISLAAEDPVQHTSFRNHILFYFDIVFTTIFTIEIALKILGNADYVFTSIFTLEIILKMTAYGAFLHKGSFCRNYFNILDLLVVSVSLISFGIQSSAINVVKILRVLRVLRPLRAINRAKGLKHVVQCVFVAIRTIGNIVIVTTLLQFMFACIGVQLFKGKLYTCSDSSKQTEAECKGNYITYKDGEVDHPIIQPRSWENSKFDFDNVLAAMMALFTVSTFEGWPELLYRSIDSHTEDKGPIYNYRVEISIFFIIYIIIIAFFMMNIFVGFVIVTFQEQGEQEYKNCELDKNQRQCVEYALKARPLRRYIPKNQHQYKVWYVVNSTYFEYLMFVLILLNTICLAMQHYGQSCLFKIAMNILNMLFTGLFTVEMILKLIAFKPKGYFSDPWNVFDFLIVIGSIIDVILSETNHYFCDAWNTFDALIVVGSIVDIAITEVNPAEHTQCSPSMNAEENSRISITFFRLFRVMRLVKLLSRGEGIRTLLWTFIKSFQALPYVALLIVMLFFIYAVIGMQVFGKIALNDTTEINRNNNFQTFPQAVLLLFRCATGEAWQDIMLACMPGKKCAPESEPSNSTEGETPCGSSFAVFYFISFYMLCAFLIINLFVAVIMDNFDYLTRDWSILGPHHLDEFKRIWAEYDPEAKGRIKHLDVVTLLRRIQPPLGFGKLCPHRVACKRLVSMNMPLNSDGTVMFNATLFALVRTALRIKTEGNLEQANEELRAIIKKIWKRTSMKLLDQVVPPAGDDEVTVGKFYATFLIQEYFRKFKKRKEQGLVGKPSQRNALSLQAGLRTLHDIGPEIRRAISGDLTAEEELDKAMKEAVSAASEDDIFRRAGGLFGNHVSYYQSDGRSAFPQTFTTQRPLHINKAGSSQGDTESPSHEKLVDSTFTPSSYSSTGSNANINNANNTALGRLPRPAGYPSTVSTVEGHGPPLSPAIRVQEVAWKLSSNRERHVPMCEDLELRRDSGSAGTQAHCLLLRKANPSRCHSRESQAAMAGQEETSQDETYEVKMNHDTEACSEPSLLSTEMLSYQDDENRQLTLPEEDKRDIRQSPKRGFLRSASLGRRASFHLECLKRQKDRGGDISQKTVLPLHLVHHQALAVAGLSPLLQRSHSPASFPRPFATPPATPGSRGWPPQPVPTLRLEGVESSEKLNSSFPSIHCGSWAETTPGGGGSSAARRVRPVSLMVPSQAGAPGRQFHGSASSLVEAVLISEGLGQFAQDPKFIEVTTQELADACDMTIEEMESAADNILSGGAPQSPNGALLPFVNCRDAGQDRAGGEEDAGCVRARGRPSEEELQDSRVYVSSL

[6] = rat, in vivo, iv, 1 mg/kg
in vivo [7] = settings: Sprague-Dawley, rat, iv, 1 mg/kg
in vitro [8] = settings: human; remark: listed apart in the source
in vitro [9] = settings: rat; remark: listed apart in the source
[10] = Apparent permeability in MDCK cells across apical to basolateral side at 10 uM incubated for 3 hrs by LC-MS/MS analysis; settings: dog
[11] = Distribution coefficient, logD of the compound at pH 7.4; settings: octanol/water
[12] = target: T2, Estrogen receptor (Homo sapiens) (UniProt P03372); settings: MCF7, dose 0.0002-100 nM, time 4.0 hrs
T2 sequence (whole entry): T1 sequence (P03372 whole entry)

[13] = target: T2, Estrogen receptor (Homo sapiens); settings: MCF7, dose 1.0 nM, time 0.5-24 hrs
in vivo [14] = settings: Sprague-Dawley, rat, po, 5 mg/kg
[15] = Clearance in Sprague-Dawley rat at 1 mg/kg, iv or po measured after 0.033 to 24 hrs by LC/MS/MS analysis; settings: in vivo
in vivo [16] = settings: Sprague-Dawley, rat, po, 1 mg/kg

Structure (SMILES)	solubility kinetic [1]	DC50 (Estrogen receptor [3])	EC50 (MCF7)	CLint scaled at 1 h, 1 µM (in vitro [4]; microsomes)	CLint scaled at 1 h, 1 µM (in vitro [5]; microsomes)	logD [11]	CLint scaled at 1 h (in vitro [8]; hepatocytes)	CLint scaled at 1 h (in vitro [9]; hepatocytes)	other results
C[C@@H]1Cc2c(ccc3[nH]ncc23)[C@@H](c2c(F)cc(OCCN3CC(CF)C3)cc2F)N1CC(C)(C)F	1 µM (≈ 0.505 µg/mL)	0.06 nM	0.8 nM	17 mL/min/kg	44 mL/min/kg				IC50 (Estrogen receptor [2]): 0.2 nM
C[C@@H]1Cc2c([nH]c3ccccc23)[C@@H](c2c(F)cc(O[C@H]3CCN(CCCF)C3)cc2F)N1CC(F)(F)CO	35 µM (≈ 18.8 µg/mL)	0.12 nM	0.3 nM	15 mL/min/kg	35 mL/min/kg				
C[C@@H]1Cc2c([nH]c3ccc(F)cc23)[C@@H](c2c(F)cc(NC3CN(CCCF)C3)cc2F)N1CC(F)(F)CO			0.5 nM						inhibition at 10 µM (Nav1.5): 14%; inhibition at 10 µM (Cav1.2): 10.7%; CL free [6]: 1475 mL/min/kg; clearance (in vivo [7]): 18 mL/min/kg; CLint scaled at 1 h (in vitro [8]; human hepatocytes): 10 mL/min/kg; CLint scaled at 1 h (in vitro [9]; rat hepatocytes): 15 mL/min/kg; CLint scaled at 1 h, 1 µM (in vitro [4]; human liver microsomes): 10 mL/min/kg; CLint scaled at 1 h, 1 µM (in vitro [5]; rat liver microsomes): 14 mL/min/kg
C[C@@H]1Cc2c([nH]c3ccccc23)[C@@H](c2c(F)cc(N[C@H]3CCN(CCCF)C3)cc2F)N1CC(F)(F)CO	80 µM (≈ 42.9 µg/mL)	0.16 nM	0.3 nM	11 mL/min/kg	26 mL/min/kg				
C[C@@H]1Cc2c([nH]c3cccc(F)c23)[C@@H](c2c(F)cc(NC3CN(CCCF)C3)cc2F)N1CC(F)(F)CO	92 µM (≈ 49.7 µg/mL)	0.04 nM	0.5 nM	12 mL/min/kg	19 mL/min/kg	3.3	12 mL/min/kg	23 mL/min/kg	Papp A→B at 3 h, 10 µM [10]: 0.9 ×10⁻⁶ cm/s; IC50 (Estrogen receptor [2]): 0.15 nM; clearance (in vivo [7]): 27 mL/min/kg
C[C@]12CC[C@@H]3c4ccc(O)cc4C[C@@H](CCCCCCCCC[S+]([O-])CCCC(F)(F)C(F)(F)F)[C@H]3[C@@H]1CC[C@@H]2O (stereo not given in full) [FULVESTRANT]	3 µM (≈ 1.82 µg/mL)		2.4 nM			> 5	15 mL/min/kg	29 mL/min/kg	Emax [12]: 103%; T1/2 [13]: 2.2 h
C[C@@H]1Cc2c([nH]c3ccccc23)[C@@H](c2c(F)cc(NCCNCCCF)cc2F)N1CC(F)(F)CO	199 µM (≈ 102 µg/mL)	0.27 nM	0.6 nM	7 mL/min/kg	< 6 mL/min/kg				Emax [12]: 90%
C[C@@H]1Cc2c([nH]c3ccccc23)[C@@H](c2ccc(NC3CN(CCCF)C3)nc2)N1CC(F)(F)CO	114 µM (≈ 55.6 µg/mL)	> 1000 nM	> 200 nM	6 mL/min/kg	23 mL/min/kg				IC50 (Estrogen receptor [2]): > 1000 nM
CC1=C(c2cccc(O)c2)[C@H](c2ccc(OCCN3CC(CF)C3)cc2)Oc2ccc(O)cc21	47 µM (≈ 21.7 µg/mL)							46 mL/min/kg	Papp A→B at 3 h, 10 µM [10]: 4.6 ×10⁻⁶ cm/s; Emax [12]: 97%; T1/2 [13]: 6 h; bioavailability (in vivo [14]): 17%
CC/C(=C(\c1ccc(O)cc1)c1ccc(OCCN(C)C)cc1)c1ccccc1 [AFIMOXIFENE]	31 µM (≈ 12 µg/mL)		3.5 nM			4	14 mL/min/kg	32 mL/min/kg	
C[C@@H]1Cc2c([nH]c3ccccc23)[C@@H](c2c(F)cc(OCCNCCCF)cc2F)N1CC(F)(F)CO			0.9 nM						
C[C@@H]1Cc2c([nH]c3ccccc23)[C@@H](c2c(F)cc(OC3CN(CCCF)C3)cc2F)N1CC(C)(C)F	1 µM (≈ 0.504 µg/mL)		0.7 nM			4.8	7 mL/min/kg	29 mL/min/kg	clearance [15]: 19 mL/min/kg; Papp A→B at 3 h, 10 µM [10]: 0.4 ×10⁻⁶ cm/s; clearance (in vivo [7]): 19 mL/min/kg; bioavailability (in vivo [16]): 31%
CC/C(=C(/c1ccc(/C=C/C(=O)O)cc1)c1ccc2[nH]ncc2c1)c1ccc(F)cc1Cl [BRILANESTRANT]	19 µM (≈ 8.49 µg/mL)		17 nM			3.8	15 mL/min/kg	6 mL/min/kg	clearance [15]: 40 mL/min/kg; Papp A→B at 3 h, 10 µM [10]: 2.3 ×10⁻⁶ cm/s; bioavailability (in vivo [14]): 30%
CC/C(=C(\c1ccccc1)c1ccc(OCCN(C)C)cc1)c1ccccc1 [TAMOXIFEN]			> 200 nM				12 mL/min/kg	33 mL/min/kg	clearance [15]: 95 mL/min/kg; bioavailability (in vivo [14]): 69%
C[C@@H]1Cc2c([nH]c3ccccc23)[C@@H](c2c(F)cc(NC3CN(CCC(F)F)C3)cc2F)N1CC(F)(F)CO	42 µM (≈ 22.7 µg/mL)	0.02 nM	0.8 nM	12 mL/min/kg	25 mL/min/kg				IC50 (Estrogen receptor [2]): 0.09 nM
C[C@@H]1Cc2c([nH]c3ccccc23)[C@@H](c2c(F)cc(OC3CN(CCCO)C3)cc2F)N1CC(F)(F)CO	163 µM (≈ 85 µg/mL)	0.03 nM	0.6 nM	9 mL/min/kg	10 mL/min/kg				IC50 (Estrogen receptor [2]): 0.08 nM
C[C@@H]1Cc2c([nH]c3ccccc23)[C@@H](c2c(F)cc(OCCN3CC(CF)C3)cc2F)N1CC(C)(C)F	10 µM (≈ 5.04 µg/mL)		1 nM	10 mL/min/kg	29 mL/min/kg	4	6 mL/min/kg	29 mL/min/kg	clearance [15]: 34 mL/min/kg; bioavailability (in vivo [16]): 31%
